Test results: patent US10786505B2, “Administration of NEDD8-activating enzyme inhibitor and chemotherapeutic agents” (Millennium Pharmaceuticals, Inc., priority 2013, dated 2020)

Key:
NCI-H510 = assay: In vitro cell viability combination assay (CellTiter-Glo); conditions: agent combined with MLN4924, vehicle DMSO, 96 hr
Protocol: (§9) General Method: Cells are grown in their respective growth media, supplemented with 10% fetal bovine serum unless otherwise noted. […] A portion of each plate is used for positive controls (no agent is added), while another portion of each plate is used for negative controls (no cells are added). Viability is assessed with CellTiter-Glo® Cell Viability reagent used according to manufacturer's instructions (Promega). Luminescence is measured using a LEADseeker imaging system (GE Healthcare).
(§10) The viability data is normalized separately for each plate by scaling the data so that the median of the negative controls is 0 and the median of the positive controls is 100. More formally,
(§11) [formula] where Vi is the normalized viability of the i^th well, Ui is the raw viability measurement, median (U) is the median of the negative controls, and median (U+) is the median of the positive controls. After normalization, the controls are discarded.
(§12) where E1, E2, E3, E4, I1, I2, I3, S1, S2, S3, and S4 are parameters, CA and CB are the respective concentrations of agents A and B, and V is the normalized viability measurement. It is assumed that the error values are independent and identically distributed normal random variables.
(§13) The Combination Index is computed based on an isobologram, which is a slice of the dose response surface with constant viability. For the present analysis, the 50% isobologram, which is the dose contour that has 50% viability, is used. […] Since the choice of (DA, DB) can be arbitrary, the constraint DA/DB=EC50A/EC50B is used.
(§14) In such cases, Nonlinear Blending can be used as an alternative measure of synergy or additivity. Nonlinear Blending is found by considering a slice of the dose response surface that intersects both concentration axes and runs parallel to the viability axis. Let VA and VB be the viability where the slice intersects the drug A and B axes, respectively. Let Vmax and Vmin be the maximum and minimum viabilities along the slice. Let NLBS=min(VA,VB)−Vmin NLBA=Vmax−max(VA,VB) Define the Nonlinear Blending value to be NLBS if NLBS>NLBA and −NLBA otherwise.
(§15) After completing the analysis of individual plates, the results are combined across the replicates. For a given measure and a set of replicates, the overall mean and standard error are computed using weighted averaging. A null mean, which corresponded to an additive effect, is then compared with the overall mean. The null mean is 1 for the Combination Index and 0 for Nonlinear Blending. Next, a two sized Z-test is performed based on the estimated mean and standard error. This produces a p-value for each measure and each cell line.
(§16) After computing the mean, standard error, and p-value for each set of replicates, these values require interpretation. Thus, a standard procedure is used to produce a classification (synergy, additivity, subadditivity, antagonism, or inconclusive) in each case. If the Combination Index exists for more than half of the replicates, then these measures are used to make the classification.
(§17) Consider the case where the Combination Index is used to make the classification. If the p-value is greater than 0.05, the estimate for the Combination Index is not statistically different from 1. However, if the standard error is also very large, then the estimate is too uncertain to be informative. […] Otherwise, the classification is “Additivity”. When the p-value is less than 0.05, the estimate for the Combination Index is statistically different from 1. However, if the mean is still close to 1, then the difference is not of practical significance. Thus, the result is classified based on the mean. A mean in the range (0.8, 1.2) is considered close enough to 1 to be classified as Additivity. A mean in the range (0, 0.8) is considered low enough to be classified as Synergy. […] The threshold value of 2 can be derived from the definition of the Combination Index.

NCI-H526 = assay: as above; conditions: agent combined with MLN4924, vehicle DMSO, 96 hr
Protocol: as §9, §10, §11, §12, §13, §14, §15, §16, §17

NCI-H82 = assay: as above; conditions: agent combined with MLN4924, vehicle DMSO, 96 hr
Protocol: as §9, §10, §11, §12, §13, §14, §15, §16, §17

NCI-H209 = assay: as above; conditions: agent combined with MLN4924, vehicle DMSO, 96 hr
NCI-H69 = assay: as above; type: cell-based; conditions: agent combined with MLN4924, vehicle DMSO, 96 hr
From the text: (§1) After normalization, the controls are discarded.
(§2) Otherwise, the classification is “Additivity”.

HCT116 = assay: as above; conditions: 48 hr
Protocol: as §9, §10, §11, §12, §13, §14, §15, §16, §17

A549 = assay: as above; conditions: 72 hr
Protocol: as §9, §10, §11, §12, §13, §14, §15, §16, §17

[1] = system: PHTX249Pa xenograft model; assay: Combination of gemcitabine and MLN4924 in PHTX249Pa xenograft model; type: in vivo, mice
Protocol: (§3) The PHTX249 Pa pancreatic xenograft model was established from a patient-derived tumor collected during surgery from a person with pancreatic adenocarcinoma. […] Gemcitabine (Gemzar, Henry Schein, Inc, Pittsburgh Pa., and Myoderm Medical, Norristown, Pa.) is formulated in 0.9% saline and administered by intraperitoneal injection (IP) q3Dx4 (every 3 days for a total of 4 doses) at 2.5 mg/kg or 10 mg/kg, or by IV injection twice weekly (BIW) at 20 mg/kg IVU. […] Tumors are measured twice weekly using a vernier caliper. […] Tumor size and body weight are measured approximately twice a week for the duration of the study. […] Tumor growth continued to be monitored after the dosing period in some studies. […] Average tumor volume is reported as a function of time for selected groups of selected studies in Figures A, B, and C. Measurements from day 0 to 18, 21 or 22 are analyzed as specified in Tables 4-9. […] For each animal, the log tumor volume at day 0 is subtracted from the log tumor volume on the subsequent days. This difference vs. time is used to calculate an area under the curve (AUC) for each animal using the trapezoid rule. In instances when an animal in a treatment group is removed early from the study, the last observed tumor value is carried forward through all subsequent time points. […] The standard error of the synergy score is computed based on the variation in the AUC values among the animals. […] Otherwise, the combination is classified as antagonistic.

PHTX02B xenograft model = assay: Combination of gemcitabine and MLN4924 in PHTX02B xenograft model; type: in vivo, mice
Protocol: as §3, with “PHTX02B breast” for “PHTX249 Pa pancreatic”, “invasive ductal carcinoma classified as triple negative breast cancer (ER-/PR-/Her2-) by IHC.” for “pancreatic adenocarcinoma.”

MIA PaCa-2 = assay: In vitro cell viability combination assay (CellTiter-Glo); type: cell-based; conditions: agent combined with MLN4924, vehicle DMSO, 72 hr
From the text: as §1, §2

PANC1 = assay: as above; type: cell-based; conditions: agent combined with MLN4924, vehicle DMSO, 72 hr
From the text: as §1, §2

BxPC3 = assay: as above; type: cell-based; conditions: agent combined with MLN4924, vehicle DMSO, 72 hr
From the text: as §1, §2

LU1143 xenograft model = assay: Combination of docetaxel or carboplatin and MLN4924 in LU1143 xenograft model; type: in vivo, mice; conditions: 10 mg/kg docetaxel QW IV
Protocol: (§4) Docetaxel (Henry Schein, Inc., Pittsburgh Pa., Qilu Pharmaceutical Co., Ltd., Jinan, Shandong, China, and Sanofi-Aventis) is formulated in 0.9% saline and administered by intravenous injection (IV) once weekly (QW) at 5 mg/kg or 10 mg/kg.
(§5) Carboplatin (CARBOplatin Injection, Hospira, Inc., Qilu Pharmaceutical Co., Ltd. Jinan, Shandong, China, and Teva Gry-Pharma GmbH, Ulm, Germany) is formulated in 0.9% saline and administered by IP injection once weekly (QW) at 50 mg/kg. The once weekly schedule is also described as every 7 days (Q7D).
(§6) Tumors are measured twice weekly using a vernier caliper. Tumor volumes are calculated using standard procedures (0.5×(length×width^2)). […] Tumor size and body weight are measured approximately twice a week for the duration of the study. Mice are euthanized when their tumor volume reached 10% of their body weight, or when the average tumor volume of a treatment or control group reached approximately 2000 mm^3. Tumor growth continued to be monitored after the dosing period in some studies. Average tumor volume is reported as a function of time for selected groups of selected studies in Figures A, B, and C.
Measurements from day 0 to 18, 21 or 22 are analyzed as specified in Tables 4-9. All tumor volumes have a value of 1 added to them before log10 transformation. For each animal, the log tumor volume at day 0 is subtracted from the log tumor volume on the subsequent days. This difference vs. time is used to calculate an area under the curve (AUC) for each animal using the trapezoid rule. […] The synergy score for the combination of agents A and B is defined as 100*(mean(AUCAB)−mean(AUCA)−mean(AUCB)+mean(AUCctl))/mean(AUCctl): where AUCAB, AUCA, AUCB, and AUCctl are the AUC values for animals in the combination group, the A group, the B group, and the control group, respectively. The standard error of the synergy score is computed based on the variation in the AUC values among the animals. […] If the P-value is above 0.05, then the combination is considered to be additive. […]

[2] = system: NCI-H1650 xenograft model; assay: Combination of docetaxel and MLN4924 in NCI-H1650 xenograft model; type: in vivo, mice
From the text: NCI-H1650 (2×10^6) tumor cells in RPMI-1640 media are mixed with an equal volume of Matrigel (BD Biosciences) and aseptically injected into the subcutaneous space in the right dorsal flank of Balb/c Nude mice (age 4-6 weeks, Shanghai SINO-British SIPPR/BK Lab Animal Ltd.) using a 25-gauge needle.
as §4, §6
(§7) Measurements from day 0 to 18, 21 or 22 are analyzed as specified in Tables 4-9. All tumor volumes have a value of 1 added to them before log10 transformation. For each animal, the log tumor volume at day 0 is subtracted from the log tumor volume on the subsequent days. This difference vs. time is used to calculate an area under the curve (AUC) for each animal using the trapezoid rule. […] The synergy score for the combination of agents A and B is defined as 100*(mean(AUCAB)−mean(AUCA)−mean(AUCB)+mean(AUCctl))/mean(AUCctl): where AUCAB, AUCA, AUCB, and AUCctl are the AUC values for animals in the combination group, the A group, the B group, and the control group, respectively. The standard error of the synergy score is computed based on the variation in the AUC values among the animals. […] If the P-value is above 0.05, then the combination is considered to be additive. If the P-value is below 0.05, and the synergy score is less than zero, then the combination is considered to be synergistic. […] Otherwise, the combination is classified as antagonistic.

LXFE409 xenograft model = assay: Combination of docetaxel or carboplatin and MLN4924 in LXFE409 xenograft model; type: in vivo, mice
Protocol: LXFE409 squamous non small cell lung cancer tumor fragments are implanted into the subcutaneous space in the flank of female NMRI nu/nu mice (5-7 weeks, Janvier Labs, Saint Berthevin, France).
as §4, §5, §6, §7

[3] = system: PHTX02B breast xenograft model; assay: Combination of docetaxel and MLN4924 in PHTX02B xenograft model; type: in vivo, mice
From the text: The PHTX02B breast xenograft model was established from a patient-derived tumor collected during surgery from a person with invasive ductal carcinoma classified as triple negative breast cancer (ER−/PR−/Her2−) by IHC. PHTX02B tumor fragments (approximately 2×2×3 mm^3) are implanted into the subcutaneous space in the right dorsal flank of female SCID-NOD mice (age 5-7 weeks, Jackson Laboratory, Bar Harbor, Me.) using a 13-gauge trocar.
as §4, §6, §7

NCI-H82 xenograft model = assay: Combination of cisplatin and MLN4924 in NCI-H82 xenograft model; type: in vivo, mice
Protocol: (§8) NCI-H69 or NCI-H82 small cell lung tumor fragments (30- to 40-mg) are implanted into the subcutaneous space in the area of the right flank of NCr nu/nu mice (7-10 weeks, Charles River Laboratories, Inc, Frederick Md. or Wilmington, Mass.) using a 12-gauge trocar.
as §6, §7

NCI-H69 xenograft model = assay: Combination of cisplatin and MLN4924 in NCI-H69 xenograft model; type: in vivo, mice; conditions: 4 mg/kg Cisplatin Q4Dx3 IP
Protocol: as §8, §6, §7

[4] = agent combined with MLN4924, vehicle PBS
[5] = agent combined with MLN4924, vehicle DMSO

Compound	Nonlinear Blending (NCI-H510)	Nonlinear Blending (NCI-H526)	Nonlinear Blending (NCI-H82)	Nonlinear Blending (NCI-H209)	Nonlinear Blending (NCI-H69)	Nonlinear Blending (HCT116; [4])	Nonlinear Blending (A549; [4])	Combination Index (HCT116; [5])	Nonlinear Blending (HCT116; [5])	Combination Index (A549; [5])	Nonlinear Blending (A549; [5])	Combination Index (NCI-H82)	Combination Index (NCI-H209)	also measured
O=C1[O][Pt]2([NH][C@@H]3CCCC[C@H]3[NH]2)[O]C1=O [oxaliplatin]	2 ± 3	−8 ± 4	6 ± 2	−5 ± 2	11 ± 3	10 ± 5	2 ± 2							
Nc1ccn([C@@H]2O[C@H](CO)[C@@H](O)C2(F)F)c(=O)n1 [gemcitabine]								0.49 ± 0.1	30 ± 3	1.44 ± 0.07	−16 ± 3			average tumor volume day 18 ([1]; PHTX249Pa xenograft, 20 mg/kg gemcitabine BIW IV): 585.1 mm^3; tumor growth compared to the control vehicle group (in words) ([1]; PHTX249 Pa xenograft, gemcitabine 20 mg/kg IV BIW, MLN4924 90 mg/kg SC BID BIW, single agents or their combination): inhibited tumor growth compared to the control vehicle group; average tumor volume day 22 (PHTX02B xenograft model; 2.5 mg/kg gemcitabine Q3Dx4 IP): 1386.3 mm^3; average tumor volume day 22 (PHTX02B xenograft model; 10 mg/kg gemcitabine Q3Dx4 IP): 769.4 mm^3; tumor growth during the treatment period (in words) (PHTX02B xenograft model; FIG. 2, MLN4924 SC 30 mg/kg BID, gemcitabine 10 mg/kg IP q3dx4, single agents or their combination): inhibited tumor growth compared to the control vehicle group; Combination Index (MIA PaCa-2): 1.15; Nonlinear Blending (MIA PaCa-2): −8.1; Combination Index (PANC1): 0.24; Nonlinear Blending (PANC1): 19.4; Combination Index (BxPC3): 1.49; Nonlinear Blending (BxPC3): −26.0
CC(=O)O[C@@]12CO[C@@H]1C[C@H](O)[C@@]1(C)C(=O)[C@H](O)C3=C(C)[C@@H](OC(=O)[C@H](O)[C@@H](NC(=O)OC(C)(C)C)c4ccccc4)C[C@@](O)([C@@H](OC(=O)c4ccccc4)[C@H]21)C3(C)C [docetaxel]	−13 ± 4	−23 ± 3	−11 ± 2	−16 ± 5				1.01 ± 0.09	7 ± 2	1.00 ± 0.1	1 ± 1	1.45 ± 0.09	1.27 ± 0.09	Combination Index (NCI-H510): 1.15 ± 0.08; average tumor volume day 21 (LU1143 xenograft model): 498.9 mm^3; Combination Index (NCI-H526): 1.38 ± 0.06; average tumor volume day 21 ([2]; 5 mg/kg docetaxel QW IV): 719.2 mm^3; average tumor volume day 21 ([2]; 10 mg/kg docetaxel QW IV): 282.7 mm^3; tumor course after the treatment period, to end of study on day 95 (in words) (LXFE409 xenograft model; LXFE409 sqNSCLC model, FIG. 4, MLN4924 120 mg/kg SC Q2Dx3/week for 3 weeks, docetaxel 10 mg/kg IV QW for 3 weeks, single agents or combination): regrew after the treatment period ended; average tumor volume day 21 (LXFE409 xenograft model; LXFE409 xenograft, 10 mg/kg docetaxel QW IV): 44.6 mm^3; tumor growth during the treatment period (in words) ([3]; PHTX02B breast xenograft, FIG. 1, MLN4924 SC 60 mg/kg BID 5 days on/5 days off, docetaxel 5 mg/kg IV QW, single agents or their combination): inhibited tumor growth compared to the control vehicle group; average tumor volume day 21 ([3]; PHTX02B xenograft, 5 mg/kg docetaxel QW IV): 736.3 mm^3
CC(=O)O[C@H]1C(=O)[C@@]2(C)[C@H]([C@H](OC(=O)c3ccccc3)[C@]3(O)C[C@H](OC(=O)[C@H](O)[C@@H](NC(=O)c4ccccc4)c4ccccc4)C(C)=C1C3(C)C)[C@]1(OC(C)=O)CO[C@@H]1C[C@@H]2O [paclitaxel]	−22 ± 4	−26 ± 3	−16 ± 2	−8 ± 3	−16 ± 4				−14 ± 2		−6 ± 0.9			
N.N.[Cl][Pt][Cl] [cisplatin]	20 ± 3		10 ± 2	−15 ± 3	−7 ± 3	14 ± 6	10 ± 1	0.76 ± 0.02	21 ± 1	0.65 ± 0.03	11 ± 5	0.81 ± 0.07	1.28 ± 0.08	average tumor volume day 22 (NCI-H82 xenograft model; 2 mg/kg cisplatin Q4Dx3 IP): 628.7 mm^3; average tumor volume day 22 (NCI-H82 xenograft model; 4 mg/kg cisplatin Q4Dx3 IP): 445.2 mm^3; Combination Index (NCI-H69): 1.28 ± 0.2; Combination Index (HCT116; [4]): 0.76 ± 0.09; Combination Index (A549; [4]): 0.75 ± 0.05; average tumor volume day 22 (NCI-H69 xenograft model): 213.6 mm^3
